Experimental data from US11000033B2, “Ketone or oxime compound, and herbicide” (NISSAN CHEMICAL CORPORATION, priority 2014, dated 2021).

Key:
Assay type in all cases: in vivo
beet = test: Test Example 5: effect on crop by foliage application, plastic box (symbol f); conditions: 320 g/ha, 3 weeks after application
In short: (§1)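 Greenhouse culture at 25° C. to 30° C. followed spot-like sowing into sterilized diluvial soil, with seed covered by roughly 1.5 cm of soil.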

Monochoria vaginalis [1] = test: Test Example 1: herbicidal activity, application before weed generation in submerged conditions (symbol C); conditions: application herbicide amount 320 g/ha
In short: (§2)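 Compound emulsion was diluted to a set herbicide amount and applied to the water surface on the sowing day, into submerged (4 cm) alluvial-soil pots sown with mixed weed seeds and transplanted 2.5-leaf rice. Pots were held in a 25–30 °C greenhouse, and weeds were scored 0–5 by herbicidal ratio after 3 weeks.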

Avena fatua = test: Test Example 4: herbicidal effect by soil treatment (symbol I); conditions: application herbicide amount 320 g/ha
In short: (§3)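 Seeds were sown in sterilized diluvial soil, covered with about 1.5 cm of soil, and the soil surface was sprayed with a water-diluted emulsion of the compound at a predetermined rate. Plants grew in a greenhouse at 25° C. to 30° C.; effects were scored visually 3 weeks after application.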

Amaranthus retroflexus = test: Test Example 5: herbicidal effect by foliage application, plastic box (symbol N); conditions: 320 g/ha, 3 weeks after application
In short: (§4)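 After sowing into sterilized diluvial soil and growing two weeks under glass at 25° C. to 30° C., seedlings receive a uniform foliar spray of diluted emulsion. Damage is judged visually three weeks on.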

[2] = tested on: Echinochloa oryzacola Vasing.; test: Test Example 2: herbicidal activity, application during weed generation in submerged conditions (symbol A); conditions: Table 23; application herbicide amount 320 g/ha; grade 0-5 by criteria of Test Example 1
In short: (§5)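 Read-out: herbicidal effect on each species rated on a visual scale 3 weeks after treatment. Plants were raised together from seed in flooded alluvial soil (4 cm water) at 25° C. to 30° C. and treated at one to two leaves by water-surface application of diluted emulsion.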

rapeseed = test: Test Example 5: effect on crop by foliage application, plastic box (symbol g); conditions: 320 g/ha, 3 weeks after application
In short: as §1

Digitaria ciliaris = test: Test Example 4: herbicidal effect by soil treatment (symbol F); conditions: application herbicide amount 320 g/ha
In short: as §3

[3] = tested on: Echinochloa crus-galli var. crus-galli; test: Test Example 5: herbicidal effect by foliage application, plastic box (symbol H); conditions: 320 g/ha, 3 weeks after application
In short: as §4

Alopecurus myosuroides = test: Test Example 4: herbicidal effect by soil treatment (symbol J); conditions: application herbicide amount 320 g/ha
In short: as §3

Abutilon theophrasti [4] = test: Test Example 4: herbicidal effect by soil treatment (symbol M); conditions: application herbicide amount 320 g/ha
In short: as §3

Abutilon theophrasti [5] = test: Test Example 5: herbicidal effect by foliage application, plastic box (symbol M); conditions: 320 g/ha, 3 weeks after application
In short: as §4

rice = test: Test Example 4: effect on crop by soil treatment (symbol b); conditions: application herbicide amount 320 g/ha
In short: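 Steps: fill box with sterilized diluvial soil; sow seed spot-like; cover with ~1.5 cm soil; grow in greenhouse (25° C. to 30° C.).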

Monochoria vaginalis [6] = test: Test Example 2: herbicidal activity, application during weed generation in submerged conditions (symbol C); conditions: Table 23; application herbicide amount 320 g/ha; grade 0-5 by criteria of Test Example 1
In short: as §5

Scirpus juncoides = test: Test Example 2: herbicidal activity, application during weed generation in submerged conditions (symbol B); conditions: Table 23; application herbicide amount 320 g/ha; grade 0-5 by criteria of Test Example 1
In short: as §5

[7] = tested on: Echinochloa oryzacola Vasing.; test: Test Example 1: herbicidal activity, application before weed generation in submerged conditions (symbol A); conditions: application herbicide amount 320 g/ha
In short: as §2

CON=C(C)CC1CC(OC(=O)C(C)(C)Oc2ccccc2Cl)=C(c2c(C)cc(C)cc2C)C1=O (stereo not drawn) [1-064]
f: beet, effect on crop grade (beet): 1 (Herbicidal ratio of 5% or higher and lower than 20%)
Herbicidal effect grade, C: Monochoria vaginalis (Monochoria vaginalis [1]): 1 (Herbicidal ratio of 5% or higher and lower than 20%)
I (Avena fatua) herbicidal effect grade (Avena fatua): 3 (Herbicidal ratio of 40% or higher and lower than 70%)
N: Amaranthus retroflexus, herbicidal effect grade (Amaranthus retroflexus): 2 (Herbicidal ratio of 20% or higher and lower than 40%)
Herbicidal effect grade, A: Echinochloa oryzacola Vasing. [2]: 5 (Herbicidal ratio of 90% or more (almost completely withered))
g: rapeseed, effect on crop grade (rapeseed): 4 (Herbicidal ratio of 70% or higher and lower than 90%)
F (Digitaria ciliaris) herbicidal effect grade (Digitaria ciliaris): 5 (Herbicidal ratio of 90% or more (almost completely withered))
H: Echinochloa crus-galli var. crus-galli, herbicidal effect grade [3]: 5 (Herbicidal ratio of 90% or more (almost completely withered))
J (Alopecurus myosuroides) herbicidal effect grade (Alopecurus myosuroides): 5 (Herbicidal ratio of 90% or more (almost completely withered))
M (Abutilon theophrasti) herbicidal effect grade (Abutilon theophrasti [4]): 3 (Herbicidal ratio of 40% or higher and lower than 70%)
M: Abutilon theophrasti, herbicidal effect grade (Abutilon theophrasti [5]): 4 (Herbicidal ratio of 70% or higher and lower than 90%)
b (directly sowed rice plant) effect on crop grade (rice): 5 (Herbicidal ratio of 90% or more (almost completely withered))
Herbicidal effect grade, C: Monochoria vaginalis (Monochoria vaginalis [6]): 1 (Herbicidal ratio of 5% or higher and lower than 20%)
Herbicidal effect grade, B: Scirpus juncoides (Scirpus juncoides): 4 (Herbicidal ratio of 70% or higher and lower than 90%)
Herbicidal effect grade, A: Echinochloa oryzacola Vasing. [7]: 5 (Herbicidal ratio of 90% or more (almost completely withered))

CON=C(C)CC1CC(OC(=O)COc2ccc(Cl)cc2)=C(c2c(C)cc(C)cc2C)C1=O (stereo not drawn) [1-044]
f: beet, effect on crop grade (beet): 2 (Herbicidal ratio of 20% or higher and lower than 40%)
Herbicidal effect grade, C: Monochoria vaginalis (Monochoria vaginalis [1]): 4 (Herbicidal ratio of 70% or higher and lower than 90%)
I (Avena fatua) herbicidal effect grade (Avena fatua): 2 (Herbicidal ratio of 20% or higher and lower than 40%)
N: Amaranthus retroflexus, herbicidal effect grade (Amaranthus retroflexus): 2 (Herbicidal ratio of 20% or higher and lower than 40%)
Herbicidal effect grade, A: Echinochloa oryzacola Vasing. [2]: 5 (Herbicidal ratio of 90% or more (almost completely withered))
g: rapeseed, effect on crop grade (rapeseed): 4 (Herbicidal ratio of 70% or higher and lower than 90%)
F (Digitaria ciliaris) herbicidal effect grade (Digitaria ciliaris): 5 (Herbicidal ratio of 90% or more (almost completely withered))
H: Echinochloa crus-galli var. crus-galli, herbicidal effect grade [3]: 5 (Herbicidal ratio of 90% or more (almost completely withered))
J (Alopecurus myosuroides) herbicidal effect grade (Alopecurus myosuroides): 5 (Herbicidal ratio of 90% or more (almost completely withered))
M (Abutilon theophrasti) herbicidal effect grade (Abutilon theophrasti [4]): 5 (Herbicidal ratio of 90% or more (almost completely withered))
M: Abutilon theophrasti, herbicidal effect grade (Abutilon theophrasti [5]): 4 (Herbicidal ratio of 70% or higher and lower than 90%)
b (directly sowed rice plant) effect on crop grade (rice): 5 (Herbicidal ratio of 90% or more (almost completely withered))
Herbicidal effect grade, C: Monochoria vaginalis (Monochoria vaginalis [6]): 3 (Herbicidal ratio of 40% or higher and lower than 70%)
Herbicidal effect grade, B: Scirpus juncoides (Scirpus juncoides): 4 (Herbicidal ratio of 70% or higher and lower than 90%)
Herbicidal effect grade, A: Echinochloa oryzacola Vasing. [7]: 5 (Herbicidal ratio of 90% or more (almost completely withered))

CC(CC1CC(O)=C(c2c(C)cc(C)cc2C)C1=O)=NOCC(F)(F)F (stereo not drawn) [1-028]
f: beet, effect on crop grade (beet): 0 (Herbicidal ratio of 5% or lower (almost no effect))
Herbicidal effect grade, C: Monochoria vaginalis (Monochoria vaginalis [1]): 1 (Herbicidal ratio of 5% or higher and lower than 20%)
I (Avena fatua) herbicidal effect grade (Avena fatua): 4 (Herbicidal ratio of 70% or higher and lower than 90%)
N: Amaranthus retroflexus, herbicidal effect grade (Amaranthus retroflexus): 0 (Herbicidal ratio of 5% or lower (almost no effect))
Herbicidal effect grade, A: Echinochloa oryzacola Vasing. [2]: 5 (Herbicidal ratio of 90% or more (almost completely withered))
g: rapeseed, effect on crop grade (rapeseed): 4 (Herbicidal ratio of 70% or higher and lower than 90%)
F (Digitaria ciliaris) herbicidal effect grade (Digitaria ciliaris): 5 (Herbicidal ratio of 90% or more (almost completely withered))
H: Echinochloa crus-galli var. crus-galli, herbicidal effect grade [3]: 5 (Herbicidal ratio of 90% or more (almost completely withered))
J (Alopecurus myosuroides) herbicidal effect grade (Alopecurus myosuroides): 5 (Herbicidal ratio of 90% or more (almost completely withered))
M (Abutilon theophrasti) herbicidal effect grade (Abutilon theophrasti [4]): 3 (Herbicidal ratio of 40% or higher and lower than 70%)
M: Abutilon theophrasti, herbicidal effect grade (Abutilon theophrasti [5]): 3 (Herbicidal ratio of 40% or higher and lower than 70%)
b (directly sowed rice plant) effect on crop grade (rice): 5 (Herbicidal ratio of 90% or more (almost completely withered))
Herbicidal effect grade, C: Monochoria vaginalis (Monochoria vaginalis [6]): 0 (Herbicidal ratio of 5% or lower (almost no effect))
Herbicidal effect grade, B: Scirpus juncoides (Scirpus juncoides): 4 (Herbicidal ratio of 70% or higher and lower than 90%)
Herbicidal effect grade, A: Echinochloa oryzacola Vasing. [7]: 5 (Herbicidal ratio of 90% or more (almost completely withered))

CC(CC1CC(O)=C(c2c(C)cc(C)cc2C)C1=O)=NOCC=CCl (stereo not drawn) [1-056]
f: beet, effect on crop grade (beet): 0 (Herbicidal ratio of 5% or lower (almost no effect))
Herbicidal effect grade, C: Monochoria vaginalis (Monochoria vaginalis [1]): 4 (Herbicidal ratio of 70% or higher and lower than 90%)
I (Avena fatua) herbicidal effect grade (Avena fatua): 3 (Herbicidal ratio of 40% or higher and lower than 70%)
N: Amaranthus retroflexus, herbicidal effect grade (Amaranthus retroflexus): 2 (Herbicidal ratio of 20% or higher and lower than 40%)
Herbicidal effect grade, A: Echinochloa oryzacola Vasing. [2]: 5 (Herbicidal ratio of 90% or more (almost completely withered))
g: rapeseed, effect on crop grade (rapeseed): 4 (Herbicidal ratio of 70% or higher and lower than 90%)
F (Digitaria ciliaris) herbicidal effect grade (Digitaria ciliaris): 5 (Herbicidal ratio of 90% or more (almost completely withered))
H: Echinochloa crus-galli var. crus-galli, herbicidal effect grade [3]: 5 (Herbicidal ratio of 90% or more (almost completely withered))
J (Alopecurus myosuroides) herbicidal effect grade (Alopecurus myosuroides): 5 (Herbicidal ratio of 90% or more (almost completely withered))
M (Abutilon theophrasti) herbicidal effect grade (Abutilon theophrasti [4]): 4 (Herbicidal ratio of 70% or higher and lower than 90%)
M: Abutilon theophrasti, herbicidal effect grade (Abutilon theophrasti [5]): 4 (Herbicidal ratio of 70% or higher and lower than 90%)
b (directly sowed rice plant) effect on crop grade (rice): 5 (Herbicidal ratio of 90% or more (almost completely withered))
Herbicidal effect grade, C: Monochoria vaginalis (Monochoria vaginalis [6]): 4 (Herbicidal ratio of 70% or higher and lower than 90%)
Herbicidal effect grade, B: Scirpus juncoides (Scirpus juncoides): 5 (Herbicidal ratio of 90% or more (almost completely withered))
Herbicidal effect grade, A: Echinochloa oryzacola Vasing. [7]: 5 (Herbicidal ratio of 90% or more (almost completely withered))

CON=C(C)CC1CC(OC(=O)C(C)(C)Oc2cccc(Cl)c2)=C(c2c(C)cc(C)cc2C)C1=O (stereo not drawn) [1-065]
f: beet, effect on crop grade (beet): 0 (Herbicidal ratio of 5% or lower (almost no effect))
Herbicidal effect grade, C: Monochoria vaginalis (Monochoria vaginalis [1]): 0 (Herbicidal ratio of 5% or lower (almost no effect))
I (Avena fatua) herbicidal effect grade (Avena fatua): 3 (Herbicidal ratio of 40% or higher and lower than 70%)
N: Amaranthus retroflexus, herbicidal effect grade (Amaranthus retroflexus): 2 (Herbicidal ratio of 20% or higher and lower than 40%)
Herbicidal effect grade, A: Echinochloa oryzacola Vasing. [2]: 4 (Herbicidal ratio of 70% or higher and lower than 90%)
g: rapeseed, effect on crop grade (rapeseed): 4 (Herbicidal ratio of 70% or higher and lower than 90%)
F (Digitaria ciliaris) herbicidal effect grade (Digitaria ciliaris): 5 (Herbicidal ratio of 90% or more (almost completely withered))
H: Echinochloa crus-galli var. crus-galli, herbicidal effect grade [3]: 5 (Herbicidal ratio of 90% or more (almost completely withered))
J (Alopecurus myosuroides) herbicidal effect grade (Alopecurus myosuroides): 5 (Herbicidal ratio of 90% or more (almost completely withered))
M (Abutilon theophrasti) herbicidal effect grade (Abutilon theophrasti [4]): 4 (Herbicidal ratio of 70% or higher and lower than 90%)
M: Abutilon theophrasti, herbicidal effect grade (Abutilon theophrasti [5]): 4 (Herbicidal ratio of 70% or higher and lower than 90%)
b (directly sowed rice plant) effect on crop grade (rice): 5 (Herbicidal ratio of 90% or more (almost completely withered))
Herbicidal effect grade, C: Monochoria vaginalis (Monochoria vaginalis [6]): 0 (Herbicidal ratio of 5% or lower (almost no effect))
Herbicidal effect grade, B: Scirpus juncoides (Scirpus juncoides): 5 (Herbicidal ratio of 90% or more (almost completely withered))
Herbicidal effect grade, A: Echinochloa oryzacola Vasing. [7]: 5 (Herbicidal ratio of 90% or more (almost completely withered))
